{
  "source": "paper PMC9386913",
  "about": "(Arthritis Research & Therapy, 2022)",
  "key": {"LPS-induced TNF": {"system": "LPS-induced TNF", "design": "method as in PMID 29549113", "conditions": "mouse model of NOMID, up to 4 weeks after dosing; cited from earlier work"}, "TNF": {"system": "TNF", "design": "method as in PMID 26904383", "conditions": "similar assay and clinical study design; no reference printed, BCT197 paper is ref 53; cited from earlier work"}, "THP-1 cells": {"system": "THP-1 cells", "experiment": "In vitro tachyphylaxis model: daily treatment of THP-1 cells, LPS-stimulated TNF", "conditions": "up to 14 days, 0.1 or 1 μM CC-99677 or 1 μM p38 inhibitors"}, "[1]": {"system": "c-Jun N-terminal kinase (JNK)", "conditions": "THP-1 cells, macrophages, and synoviocytes; cited from earlier work"}},
  "data": [
    {"smiles": "Cc1cnc(-c2ccnc(C(C)(C)O)n2)cc1-n1c(C)cc(OCc2ncc(F)cc2F)c(Cl)c1=O", "note": "[ATI-450]", "values": [
      {"measurement": "Inhibition of LPS-induced TNF", "setting": "LPS-induced TNF", "result": "showed inhibition of LPS-induced TNF for up to 4 weeks after dosing"}
    ]},
    {"smiles": "Cc1ccc(C(=O)NC2CC2)cc1-n1ncc(C(=O)c2cccc(C#N)c2)c1N", "note": "[BCT197]", "values": [
      {"measurement": "Sustained TNF inhibition over treatment period", "setting": "TNF", "result": "loss of effect"}
    ]},
    {"smiles": "Cc1ccc(-n2nc(C(C)(C)C)cc2NC(=O)Nc2ccc(OCCN3CCOCC3)c3ccccc23)cc1", "note": "[BIRB-796]", "values": [
      {"measurement": "LPS-stimulated TNF production under continued daily treatment", "setting": "THP-1 cells", "result": "beginning on day 9, loss of TNF inhibitory effect"}
    ]},
    {"smiles": "CCCNC(=O)c1cn2ncnc(Nc3cc(C(=O)NC4CC4)ccc3C)c2c1C", "note": "[BMS-582949]", "values": [
      {"measurement": "LPS-stimulated TNF production under continued daily treatment", "setting": "THP-1 cells", "result": "beginning on day 9, loss of TNF inhibitory effect"}
    ]},
    {"smiles": "O=C(CO)N1CCC(c2[nH]nc(-c3ccc(Cl)cc3)c2-c2ccncn2)CC1", "note": "[CDD-111]", "values": [
      {"measurement": "Inhibition of LPS-induced TNF", "setting": "LPS-induced TNF", "result": "did not"}
    ]},
    {"smiles": "C[S+]([O-])c1ccc(-c2nc(-c3ccncc3)c(-c3ccc(F)cc3)[nH]2)cc1", "note": "(centres unmarked) [SB203580]", "values": [
      {"measurement": "Activation of c-Jun N-terminal kinase (JNK) upon treatment", "setting": "[1]", "result": "activation of c-Jun N-terminal kinase (JNK)"}
    ]},
    {"smiles": "C[C@@H]1CN(Cc2ccc(F)cc2)[C@@H](C)CN1C(=O)c1cc2c(C(=O)C(=O)N(C)C)cn(C)c2cc1Cl", "note": "[SCIO-469]", "values": [
      {"measurement": "LPS-stimulated TNF production under continued daily treatment", "setting": "THP-1 cells", "result": "beginning on day 9, loss of TNF inhibitory effect"}
    ]},
    {"smiles": "O=c1ncn2nc(Sc3ccc(F)cc3F)ccc2c1-c1c(Cl)cccc1Cl", "note": "[VX-745]", "values": [
      {"measurement": "Activation of c-Jun N-terminal kinase (JNK) upon treatment", "setting": "[1]", "result": "activation of c-Jun N-terminal kinase (JNK)"}
    ]}
  ]
}
